Legend:
[1] = test system: prostate (PC3) tumor cell line; test: Methylene Blue Growth Inhibition Assay, PC3; type: cell-based; conditions: Homo sapiens, 72 h; Cell Line PC3, 3 days; read-out: MeB IC50
Method: (§1) Normal Human foreskin fibroblasts (HFF) and human colon (HCT116, RKO), lung (H460), prostate (PC3), and breast tumor (MCF7) cell lines were cultured in high glucose DMEM (Life Technologies) containing 10% fetal bovine serum (FBS) at 37° C. in a humidified 10% CO2, 90% air incubator. Cells were harvested using trypsin/EDTA, counted using a haemocytometer, and plated in 100 μl of the appropriate media, at the following densities, in a 96-well tissue culture plate (Falcon 3075): HFF 5,000 cells/well, HCT116 3,000 cells/well, RKO 2,500 cells/well, H460 2,000 cells/well, PC3 8,000 cells/well, MCF7 4,000 cells/well. The next day, compounds were diluted in DMEM containing 100 μg/ml gentamicin, at twice the final required concentration, from 10 mM stock solutions in DMSO. 100μ/well of these dilutions were added to the 100 μl of media currently on the cell plates. Medium containing 0.6% DMSO was added to control wells. Compounds diluted in DMEM were added to all cell lines. The final concentration of DMSO in all wells was 0.3%. Cells were incubated at 37° C., 10% CO2 for 3 days. Medium was removed by aspiration. Cell biomass was estimated by staining cells with […] per well methylene blue (Sigma M9140, 0.5% in 50:50 ethanol:water), and incubation at room temperature for at least 30 minutes. Stain was removed, and the plates rinsed under a gentle stream of water, and air-dried. To release stain from the cells 100 μl of solubilization solution was added (1% N-lauroyl sarcosine, Sodium salt, Sigma L5125, in PBS), and plates were shaken gently for about 30 minutes. Optical density at 620 nm was measured on a microplate reader. Percent inhibition of cell growth was calculated relative to vehicle treated control wells. Concentration of compound that inhibits 50% of cell growth (IC50) was interpolated using nonlinear regression (Levenberg-Marquardt) and the equation, y=Vmax*(1-(x/(K+x)))+Y2, where “K” was equal to the IC50. In Table 1, +=10−>30 uM; ++=1−10 uM: +++=<1 uM.

[2] = test system: Normal Human foreskin fibroblasts (HFF); test: Methylene Blue Growth Inhibition Assay, HFF; type: cell-based; conditions: 72 h, Cell Line HFF, 3 days, read-out: MeB IC50
Method: as §1

[3] = test system: colon (HCT116) tumor cell line; test: Methylene Blue Growth Inhibition Assay, HCT116; type: cell-based; conditions: Homo sapiens, HCT-116, 72 h; Cell Line HCT116, 3 days; read-out: MeB IC50
Method: as §1

PLK1 kinase domain = target: T1, PLK1 kinase domain (Homo sapiens, UniProt P53350); test: Assay for Inhibition of PLK1 (SPA enzyme activity); type: biochemical; conditions: 2 μM ATP, read-out: Ave pIC50 PLK Enzyme Inhibition (converted)
T1 construct: made in house; host or cells: baculovirus-infected T. ni insect cells
T1 sequence (P53350 21-346): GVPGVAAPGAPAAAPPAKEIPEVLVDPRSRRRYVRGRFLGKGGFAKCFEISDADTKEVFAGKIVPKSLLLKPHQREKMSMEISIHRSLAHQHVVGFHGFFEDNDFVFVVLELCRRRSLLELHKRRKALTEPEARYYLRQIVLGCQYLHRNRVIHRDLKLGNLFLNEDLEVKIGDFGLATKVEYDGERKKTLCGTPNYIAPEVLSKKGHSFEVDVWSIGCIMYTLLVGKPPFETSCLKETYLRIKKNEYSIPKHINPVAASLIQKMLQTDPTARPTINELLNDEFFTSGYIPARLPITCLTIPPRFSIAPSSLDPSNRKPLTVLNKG
Method: All procedures were performed at 4° C. Cells were lysed in so mM HEPES, 200 mM NaCl, so mM imidazole, 5% glycerol; pH 7.5. The homogenate was centrifuged at 14K rpm in a SLA-1500 rotor for 1 hr and the supernatant filtered through a 1.2 micron filter. The supernatant was loaded onto a Nickel chelating Sepharose (Amersham Pharmacia) column and washed with lysis buffer. Protein was eluted using 20%, 30% and 100% buffer B steps where buffer B is 50 mM HEPES, 200 mM NaCl, 300 mM imidazole, 5% glycerol; pH 7.5. Fractions containing PLK were determined by SDS-PAGE. Fractions containing PLK were diluted five-fold with so mM HEPES, 1 mM DTT, 5% glycerol; pH 7.5, then loaded on an SP Sepharose (Amersham Pharmacia) column. After washing the column with so mM HEPES, 1 mM DTT, 5% glycerol; pH 7.5, PLK was step eluted with so mM HEPES, 1 mM DTT, 500 mM NaCl; 5% glycerol; pH 7.5. PLK was concentrated using a 10 kDa molecular weight cutoff membrane and then loaded onto a Superdex 200 gel filtration (Amersham Pharmacia) column equilibrated in 25 mM HEPES, 1 mM DTT, 500 mM NaCl, 5% glycerol; pH 7.5. Fractions containing PLK were determined by SDS-PAGE. PLK was pooled, aliquoted and stored at −80° C. Samples were quality controlled using mass spectrometry, N-terminal sequencing and amino acid analysis.
B. Enzyme activity+/−inhibitors was determined as follows:
Compounds were added to the plate (1 μl in […]). […] Reaction Mix B is prepared as follows at 4° C.: • Reaction Mix B (Enzyme Mix) • 25 mM HEPES, pH 7.2 • 15 mM MgCl2 • 0.15 mg/ml BSA • 2 mM DTT • 2-10 nM PLK1 kinase domain
Reaction Mix A (20 μl) is added per well. Reaction Mix B (20 μl) is added per well. Incubate 1.5 hrs. at RT. The enzymatic reaction is stopped with 175 μl of SPA/EDTA bead mix (29 mM EDTA, 2.5 mg/ml Streptavidin-coated SPA in Standard Dulbecco's PBS (without Mg^2+ and Ca^2+), 60 μM ATP). Plates are sealed spun (after a 1 hr incubation at RT) at 1,000×g for 7 min or settled overnight, then plates counted in Packard TopCount for 30 seconds/well.

[4] = test system: lung (H460) tumor cell line; test: Methylene Blue Growth Inhibition Assay, H460; type: cell-based; conditions: Homo sapiens, NCI-H460, 72 h; Cell Line H460, 3 days; read-out: MeB IC50
Method: as §1

[5] = test system: breast tumor (MCF7) cell line; test: Methylene Blue Growth Inhibition Assay, MCF7; type: cell-based; conditions: Homo sapiens, 72 h; Cell Line MCF7, 3 days; read-out: MeB IC50
Method: as §1

[6] = test system: colon (RKO) tumor cell line; test: Methylene Blue Growth Inhibition Assay, RKO; type: cell-based; conditions: Homo sapiens, 72 h, 3 days, read-out: MeB IC50
Method: as §1

SMILES	IC50 [1]	IC50 [3]	IC50 (PLK1 kinase domain)	IC50 [4]	IC50 [5]	IC50 [6]	IC50 [2]
COc1cc2ncn(-c3cc(OCc4ccccc4C(F)(F)F)c(C(N)=O)s3)c2cc1OCCN1CCN(C)CC1 [Example 136, 5-(5-(Methyloxy)-6-{[2-(4-methyl-1-piperazinyl)ethyl]oxy}-1H-benzimidazol-1-yl)-3-({[2-(trifluoromethyl)phenyl]methyl}oxy)-2-thiophenecarboxamide]	1 to 10 µM	< 1 µM	< 100 nM	< 1 µM	< 1 µM	< 1 µM	1 to 10 µM
Cc1ccccc1COc1cc(-n2cnc3ccccc32)sc1C(N)=O [Example 4, 5-(1H-Benzimidazol-1-yl)-3-[(2-methylbenzyl)oxy]-2-thiophenecarboxamide]			< 100 nM				
O=C(O)c1sc(-n2cnc3ccc(Br)cc32)cc1OCc1ccccc1C(F)(F)F [Example 74, 5-(6-Bromo-1H-benzimidazol-1-yl)-3-{[2-(trifluoromethyl)-benzyl]oxy}thiophene-2-carboxylic acid]	> 10 µM	> 10 µM	< 100 nM	1 to 10 µM	> 10 µM	> 10 µM	> 10 µM
NC(=O)c1sc(-n2cnc3ccccc32)cc1OCc1ccccc1C(F)(F)F [Example 116, 5-(1H-Benzimidazol-1-yl)-3-{[2-(trifluoromethyl)benzyl]oxy}thiophene-2-carboxamide]	> 10 µM	1 to 10 µM		< 1 µM	< 1 µM	< 1 µM	1 to 10 µM
COc1cccc(COc2cc(-n3cnc4ccccc43)sc2C(N)=O)c1 [Example 14, 5-(1H-Benzimidazol-1-yl)-3-[(3-methoxybenzyl)oxy]-2-thiophenecarboxamide]			< 100 nM				
O=C(NO)c1sc(-n2cnc3ccccc32)cc1OCc1ccccc1 [Example 144, 5-(1H-Benzimidazol-1-yl)-3-(benzyloxy)-N-hydroxythiophene-2-carboxamide]			100 to 10000 nM				
NC(=O)c1sc(-n2cnc3cc(Cl)ccc32)cc1OCc1ccccc1 [Example 84, 3-(Benzyloxy)-5-(5-chloro-1H-benzimidazol-1-yl)thiophene-2-carboxamide]			< 100 nM				
Cc1cccc(COc2cc(-n3cnc4ccccc43)sc2C(N)=O)c1 [Example 13, 5-(1H-Benzimidazol-1-yl)-3-[(3-methylbenzyl)oxy]-2-thiophenecarboxamide]			< 100 nM				
NC(=O)c1sc(-n2cnc3ccccc32)cc1OCc1cccc(Cl)c1 [Example 15, 5-(1H-Benzimidazol-1-yl)-3-[(3-chlorobenzyl)oxy]-2-thiophenecarboxamide]			< 100 nM				
Cc1ccccc1COc1cc(-n2cnc3cc(O)ccc32)sc1C(=O)O [Example 141, 5-(5-Hydroxy-1H-benzimidazol-1-yl)-3-[(2-methylbenzyl)oxy]-thiophene-2-carboxylic acid]			< 100 nM				

Second part, led by results:

IC50 [1]	IC50 [3]	IC50 (PLK1 kinase domain)	IC50 [4]	IC50 [5]	IC50 [6]	SMILES	IC50 [2]
> 10 µM	1 to 10 µM	< 100 nM	1 to 10 µM	1 to 10 µM	1 to 10 µM	COc1cc2ncn(-c3cc(OCc4ccc(C(N)=O)cc4)c(C(N)=O)s3)c2cc1OC [Example 104, 3-{[4-(Aminocarbonyl)benzyl]oxy}-5-(5,6-dimethoxy-1H-benzimidazol-1-yl)thiophene-2-carboxamide]	> 10 µM
1 to 10 µM	1 to 10 µM		1 to 10 µM	1 to 10 µM	1 to 10 µM	COc1cc2ncn(-c3cc(OCC4CCCCC4)c(C(N)=O)s3)c2cc1OC [Example 111, 3-(Cyclohexylmethoxy)-5-(5,6-dimethoxy-1H-benzimidazol-1-yl)thiophene-2-carboxamide]	> 10 µM
> 10 µM	> 10 µM	< 100 nM	> 10 µM	> 10 µM	> 10 µM	COc1cc2ncn(-c3cc(OS(=O)(=O)c4ccccc4[N+](=O)[O-])c(C(N)=O)s3)c2cc1OC [Example 153, 2-(Aminocarbonyl)-5-(5,6-dimethoxy-1H-benzimidazol-1-yl)thien-3-yl 2-nitrobenzenesulfonate]	> 10 µM
1 to 10 µM	< 1 µM	< 100 nM	< 1 µM	< 1 µM	< 1 µM	NC(=O)c1sc(-n2cnc3ccccc32)cc1OCc1ccccc1[N+](=O)[O-] [Example 117, 5-(1H-Benzimidazol-1-yl)-3-[(2-nitrobenzyl)oxy]thiophene-2-carboxamide]	> 10 µM
> 10 µM	1 to 10 µM		1 to 10 µM	1 to 10 µM	1 to 10 µM	COc1cc2ncn(-c3cc(OCCCc4ccccc4)c(C(N)=O)s3)c2cc1OC [Example 115, 5-(5,6-Dimethoxy-1H-benzimidazol-1-yl)-3-(3-phenylpropoxy)thiophene-2-carboxamide]	> 10 µM
> 10 µM	> 10 µM		> 10 µM	> 10 µM	> 10 µM	COc1cc2ncn(-c3cc(OCCc4ccccc4)c(C(N)=O)s3)c2cc1OC [Example 114, 5-(5,6-Dimethoxy-1H-benzimidazol-1-yl)-3-(2-phenylethoxy)-thiophene-2-carboxamide]	> 10 µM
> 10 µM	1 to 10 µM		> 10 µM	> 10 µM	> 10 µM	COc1cc2ncn(-c3cc(OCc4ccccc4C(F)(F)F)c(C(=O)O)s3)c2cc1OC [Example 75]	> 10 µM
		100 to 10000 nM				COc1cc2ncn(-c3cc(OCc4ccccc4C(F)(F)F)c(C#N)s3)c2cc1OC [Example 146, 5-(5,6-Dimethoxy-1H-benzimidazol-1-yl)-1-{[2-(trifluoromethyl)benzyl]oxy}thiophene-2-carbonitrile]	
> 10 µM	> 10 µM		> 10 µM	> 10 µM	> 10 µM	COc1cc2ncn(-c3cc(OCc4ccccc4C(F)(F)F)c(-c4nnn[nH]4)s3)c2cc1OC [Example 147, 5,6-Dimethoxy-1-(5-(1H-tetraazol-5-yl)-4-{[2-(trifluoromethyl)-benzyl]oxy}thien-2-yl)-1H-benzimidazole]	> 10 µM

From patent US20080269298A1, “Benzimidazol-1-YL-thiophene compounds for the treatment of cancer” (priority 2002, published 2008)
